Measured values as given in paper PMC7180948, “New Insights into 4-Anilinoquinazolines as Inhibitors of Cardiac Troponin I–Interacting Kinase (TNNi3K)” (Molecules, 2020).

Key:
Assay in all cases: biochemical
Set-up in all cases: KINOMEscan competition binding panel (Eurofins DiscoverX), single concentration, percent inhibition
Conditions in all cases: read-out: 15 at 1 µM % inhibition
[1] = target: ACVR2B (Homo sapiens, UniProt Q13705)
Method in brief: (§1)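 Selectivity profile from a KINOMEscan run against >400 human kinases; test concentration 1 µM.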

[2] = target: BRAF (Homo sapiens, UniProt P15056)
Method in brief: as §1

[3] = target: EGFR(L747-S752del, P753S) (Homo sapiens, UniProt P00533, DEL747-752/P753S)
Method in brief: as §1

[4] = target: T1, ERK1 (Homo sapiens, UniProt P27361)
T1 construct: gene MAPK3
Method in brief: as §1

[5] = target: GSK3B (Homo sapiens, UniProt P49841)
Method in brief: as §1

[6] = target: T2, HPK1 (Homo sapiens, UniProt Q92918)
T2 construct: gene MAP4K1
Method in brief: as §1

[7] = target: T3, JNK3 (Homo sapiens, UniProt P53779)
T3 construct: gene MAPK10
Method in brief: as §1

[8] = target: LCK (Homo sapiens, UniProt P06239)
Method in brief: as §1

[9] = target: MAP4K3 (Homo sapiens, UniProt Q8IVH8)
Method in brief: as §1

[10] = target: MKNK2 (Homo sapiens, UniProt Q9HBH9)
Method in brief: as §1

[11] = target: T4, MST2 (Homo sapiens, UniProt Q13188)
T4 construct: gene STK3
Method in brief: as §1

[12] = target: T5, MST3 (Homo sapiens, UniProt Q9Y6E0)
T5 construct: gene STK24
Method in brief: as §1

[13] = target: MYLK (Homo sapiens, UniProt Q15746)
Method in brief: as §1

[14] = target: PAK4 (Homo sapiens, UniProt O96013)
Method in brief: as §1

[15] = target: PHKG1 (Homo sapiens, UniProt Q16816)
Method in brief: as §1

[16] = target: PIK3CA(I800L) (Homo sapiens, UniProt P42336, I800L)
Method in brief: as §1

[17] = target: PLK1 (Homo sapiens, UniProt P53350)
Method in brief: as §1

[18] = target: PRKX (Homo sapiens, UniProt P51817)
Method in brief: as §1

[19] = target: T6, PYK2 (Homo sapiens, UniProt Q14289)
T6 construct: gene PTK2B
Method in brief: as §1

[20] = target: RIOK3 (Homo sapiens, UniProt O14730)
Method in brief: as §1

[21] = target: T7, RSK1(Kin.Dom.1-N-terminal) (Homo sapiens, UniProt Q15418)
T7 construct: gene RPS6KA1; Kin.Dom.1-N-terminal
Method in brief: as §1

[22] = target: T8, RSK1(Kin.Dom.2-C-terminal) (Homo sapiens, UniProt Q15418)
T8 construct: gene RPS6KA1; Kin.Dom.2-C-terminal
Method in brief: as §1

[23] = target: STK36 (Homo sapiens, UniProt Q9NRP7)
Method in brief: as §1

[24] = target: ULK3 (Homo sapiens, UniProt Q6PHR2)
Method in brief: as §1

Sequence of BRAF (P15056 whole entry): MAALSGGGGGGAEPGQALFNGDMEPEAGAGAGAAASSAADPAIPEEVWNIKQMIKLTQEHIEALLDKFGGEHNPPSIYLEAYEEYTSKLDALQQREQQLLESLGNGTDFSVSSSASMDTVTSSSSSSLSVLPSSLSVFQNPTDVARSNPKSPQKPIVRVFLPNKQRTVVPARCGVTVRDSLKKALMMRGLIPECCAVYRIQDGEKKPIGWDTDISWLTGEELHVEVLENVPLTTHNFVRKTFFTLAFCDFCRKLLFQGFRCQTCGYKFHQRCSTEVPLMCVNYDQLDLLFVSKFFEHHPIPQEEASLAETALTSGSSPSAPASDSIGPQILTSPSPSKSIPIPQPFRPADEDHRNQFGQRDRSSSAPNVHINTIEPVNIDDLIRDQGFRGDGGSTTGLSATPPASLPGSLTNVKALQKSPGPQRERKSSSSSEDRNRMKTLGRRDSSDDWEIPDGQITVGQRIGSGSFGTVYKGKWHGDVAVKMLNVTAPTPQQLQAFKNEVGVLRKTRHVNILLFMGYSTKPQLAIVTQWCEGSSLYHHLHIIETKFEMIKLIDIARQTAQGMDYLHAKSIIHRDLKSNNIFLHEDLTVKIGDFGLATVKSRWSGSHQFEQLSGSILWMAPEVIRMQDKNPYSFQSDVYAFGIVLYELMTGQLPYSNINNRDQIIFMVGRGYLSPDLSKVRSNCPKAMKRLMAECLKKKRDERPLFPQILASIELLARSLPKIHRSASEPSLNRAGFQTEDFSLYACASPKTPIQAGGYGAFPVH
T5 sequence (Q9Y6E0 whole entry): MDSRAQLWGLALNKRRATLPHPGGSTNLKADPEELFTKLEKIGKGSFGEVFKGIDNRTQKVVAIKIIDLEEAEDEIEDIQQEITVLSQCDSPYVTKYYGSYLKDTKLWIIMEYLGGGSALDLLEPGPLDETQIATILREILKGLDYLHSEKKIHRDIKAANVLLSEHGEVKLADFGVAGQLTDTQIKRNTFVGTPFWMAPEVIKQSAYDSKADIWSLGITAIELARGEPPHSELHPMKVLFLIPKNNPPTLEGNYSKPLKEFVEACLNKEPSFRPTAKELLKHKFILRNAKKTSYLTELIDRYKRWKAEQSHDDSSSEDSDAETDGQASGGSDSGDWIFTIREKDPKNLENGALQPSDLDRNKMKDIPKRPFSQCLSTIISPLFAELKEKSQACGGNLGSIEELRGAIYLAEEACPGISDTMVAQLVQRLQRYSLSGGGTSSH
T4 sequence (Q13188 whole entry): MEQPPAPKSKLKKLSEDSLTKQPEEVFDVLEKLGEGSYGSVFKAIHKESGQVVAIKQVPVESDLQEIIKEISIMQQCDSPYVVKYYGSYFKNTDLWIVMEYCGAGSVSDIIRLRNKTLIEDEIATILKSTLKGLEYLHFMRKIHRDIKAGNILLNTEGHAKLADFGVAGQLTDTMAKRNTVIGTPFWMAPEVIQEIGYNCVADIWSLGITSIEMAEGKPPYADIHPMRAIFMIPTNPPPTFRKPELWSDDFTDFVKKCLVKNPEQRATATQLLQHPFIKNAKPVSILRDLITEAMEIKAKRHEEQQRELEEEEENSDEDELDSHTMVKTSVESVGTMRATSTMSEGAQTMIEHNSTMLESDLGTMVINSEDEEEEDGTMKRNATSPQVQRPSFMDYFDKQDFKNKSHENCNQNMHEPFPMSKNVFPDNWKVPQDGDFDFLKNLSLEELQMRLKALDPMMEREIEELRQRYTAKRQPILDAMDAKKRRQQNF
Sequence of MYLK (Q15746 whole entry): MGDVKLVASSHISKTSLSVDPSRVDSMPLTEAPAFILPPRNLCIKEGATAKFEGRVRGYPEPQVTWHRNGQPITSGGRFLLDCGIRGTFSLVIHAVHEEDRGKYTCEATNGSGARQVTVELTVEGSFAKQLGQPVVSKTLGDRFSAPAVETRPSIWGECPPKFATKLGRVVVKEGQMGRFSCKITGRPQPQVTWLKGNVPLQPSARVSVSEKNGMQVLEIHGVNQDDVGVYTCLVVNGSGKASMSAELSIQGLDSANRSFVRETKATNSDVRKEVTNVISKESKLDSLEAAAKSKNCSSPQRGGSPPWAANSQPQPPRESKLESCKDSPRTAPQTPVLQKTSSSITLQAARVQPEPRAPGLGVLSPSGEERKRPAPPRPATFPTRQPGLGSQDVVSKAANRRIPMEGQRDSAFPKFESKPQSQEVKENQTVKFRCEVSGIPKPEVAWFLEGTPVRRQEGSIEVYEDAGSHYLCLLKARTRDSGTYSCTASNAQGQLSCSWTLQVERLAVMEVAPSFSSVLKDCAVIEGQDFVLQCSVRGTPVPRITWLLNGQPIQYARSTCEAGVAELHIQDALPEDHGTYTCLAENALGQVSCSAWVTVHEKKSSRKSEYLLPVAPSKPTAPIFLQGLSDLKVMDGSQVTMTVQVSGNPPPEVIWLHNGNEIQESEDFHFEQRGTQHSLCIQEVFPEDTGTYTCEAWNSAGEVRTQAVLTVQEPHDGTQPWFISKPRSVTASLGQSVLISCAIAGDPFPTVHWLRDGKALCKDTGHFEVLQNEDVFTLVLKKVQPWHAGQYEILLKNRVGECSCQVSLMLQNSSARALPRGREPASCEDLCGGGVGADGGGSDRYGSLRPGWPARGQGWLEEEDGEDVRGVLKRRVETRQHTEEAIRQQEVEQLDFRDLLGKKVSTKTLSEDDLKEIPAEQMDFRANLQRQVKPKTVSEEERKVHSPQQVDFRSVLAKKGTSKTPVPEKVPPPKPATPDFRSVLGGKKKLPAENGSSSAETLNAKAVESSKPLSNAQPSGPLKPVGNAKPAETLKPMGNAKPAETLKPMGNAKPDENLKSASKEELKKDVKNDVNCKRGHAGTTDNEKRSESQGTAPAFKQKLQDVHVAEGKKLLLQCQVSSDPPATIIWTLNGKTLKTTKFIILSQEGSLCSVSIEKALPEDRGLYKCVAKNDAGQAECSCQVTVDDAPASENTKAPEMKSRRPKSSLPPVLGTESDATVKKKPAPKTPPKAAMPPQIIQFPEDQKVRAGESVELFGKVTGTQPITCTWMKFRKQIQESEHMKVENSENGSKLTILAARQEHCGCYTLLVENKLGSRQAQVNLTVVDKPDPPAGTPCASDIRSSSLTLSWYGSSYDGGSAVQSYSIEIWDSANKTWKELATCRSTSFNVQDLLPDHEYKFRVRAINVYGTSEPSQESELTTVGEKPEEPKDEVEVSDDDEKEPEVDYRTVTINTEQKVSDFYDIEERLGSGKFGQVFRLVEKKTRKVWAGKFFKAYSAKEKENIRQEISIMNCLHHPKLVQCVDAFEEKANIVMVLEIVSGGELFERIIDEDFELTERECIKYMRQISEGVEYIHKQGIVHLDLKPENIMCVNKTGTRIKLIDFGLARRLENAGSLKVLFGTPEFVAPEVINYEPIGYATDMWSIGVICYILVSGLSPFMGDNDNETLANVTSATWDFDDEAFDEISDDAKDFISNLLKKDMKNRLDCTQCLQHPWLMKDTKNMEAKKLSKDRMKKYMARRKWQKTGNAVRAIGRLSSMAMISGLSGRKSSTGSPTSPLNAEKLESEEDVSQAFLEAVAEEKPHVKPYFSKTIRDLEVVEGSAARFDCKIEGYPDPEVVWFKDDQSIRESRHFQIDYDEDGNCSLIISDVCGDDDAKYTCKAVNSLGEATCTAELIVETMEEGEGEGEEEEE
T1 sequence (P27361 whole entry): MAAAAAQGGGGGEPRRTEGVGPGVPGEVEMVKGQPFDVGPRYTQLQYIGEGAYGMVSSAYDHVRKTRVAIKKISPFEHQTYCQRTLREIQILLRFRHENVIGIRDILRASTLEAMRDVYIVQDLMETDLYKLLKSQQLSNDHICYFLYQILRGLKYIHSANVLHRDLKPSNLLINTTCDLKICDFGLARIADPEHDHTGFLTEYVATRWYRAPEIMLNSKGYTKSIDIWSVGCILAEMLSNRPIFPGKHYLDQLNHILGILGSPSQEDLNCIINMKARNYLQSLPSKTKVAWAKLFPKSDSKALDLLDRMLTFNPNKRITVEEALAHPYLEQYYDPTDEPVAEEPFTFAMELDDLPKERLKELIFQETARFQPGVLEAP
Sequence of PIK3CA(I800L) (P42336 whole entry I800L): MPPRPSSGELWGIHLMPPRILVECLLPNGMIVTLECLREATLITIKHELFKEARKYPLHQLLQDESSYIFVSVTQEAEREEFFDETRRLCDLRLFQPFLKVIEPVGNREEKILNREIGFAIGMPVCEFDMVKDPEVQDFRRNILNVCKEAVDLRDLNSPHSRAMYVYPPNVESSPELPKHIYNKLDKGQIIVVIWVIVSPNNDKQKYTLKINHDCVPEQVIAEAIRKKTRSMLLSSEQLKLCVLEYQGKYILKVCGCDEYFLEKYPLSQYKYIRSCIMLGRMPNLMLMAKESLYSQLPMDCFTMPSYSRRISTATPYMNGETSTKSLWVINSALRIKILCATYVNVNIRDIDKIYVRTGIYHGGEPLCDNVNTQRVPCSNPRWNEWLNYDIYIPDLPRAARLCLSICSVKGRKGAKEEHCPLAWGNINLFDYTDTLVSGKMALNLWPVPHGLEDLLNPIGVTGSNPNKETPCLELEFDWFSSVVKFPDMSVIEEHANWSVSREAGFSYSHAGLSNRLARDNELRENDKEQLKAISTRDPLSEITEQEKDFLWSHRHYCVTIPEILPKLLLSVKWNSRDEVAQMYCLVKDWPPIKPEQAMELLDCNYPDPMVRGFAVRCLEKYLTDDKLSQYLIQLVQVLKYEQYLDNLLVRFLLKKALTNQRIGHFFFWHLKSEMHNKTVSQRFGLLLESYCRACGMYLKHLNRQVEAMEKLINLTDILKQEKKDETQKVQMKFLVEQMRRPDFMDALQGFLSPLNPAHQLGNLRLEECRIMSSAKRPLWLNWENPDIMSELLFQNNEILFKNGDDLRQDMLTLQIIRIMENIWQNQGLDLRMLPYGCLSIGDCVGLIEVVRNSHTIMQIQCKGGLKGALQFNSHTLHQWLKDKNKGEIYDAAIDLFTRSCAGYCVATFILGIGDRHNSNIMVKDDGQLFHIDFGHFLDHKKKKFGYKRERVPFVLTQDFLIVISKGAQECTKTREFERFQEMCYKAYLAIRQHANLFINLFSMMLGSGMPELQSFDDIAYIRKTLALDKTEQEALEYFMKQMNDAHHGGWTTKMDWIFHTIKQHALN

Structure (SMILES): CNS(=O)(=O)c1ccc(N(C)C)c(Nc2nc(C)nc3cc(OC)c(OC)cc23)c1 [compound 15, 3-((6,7-dimethoxy-2-methylquinazolin-4-yl)amino)-4-(dimethylamino)-N-methylbenzenesulfonamide]
- inhibition at 1 µM [1]: 0%
- inhibition at 1 µM [2]: 20%
- inhibition at 1 µM [3]: 11%
- inhibition at 1 µM [4]: 0%
- inhibition at 1 µM [5]: 17%
- inhibition at 1 µM [6]: 0%
- inhibition at 1 µM [7]: 0%
- inhibition at 1 µM [8]: 0%
- inhibition at 1 µM [9]: 0%
- inhibition at 1 µM [10]: 38%
- inhibition at 1 µM [11]: 4%
- inhibition at 1 µM [12]: 0%
- inhibition at 1 µM [13]: 0%
- inhibition at 1 µM [14]: 0%
- inhibition at 1 µM [15]: 0%
- inhibition at 1 µM [16]: 38%
- inhibition at 1 µM [17]: 0%
- inhibition at 1 µM [18]: 0%
- inhibition at 1 µM [19]: 0%
- inhibition at 1 µM [20]: 0%
- inhibition at 1 µM [21]: 0%
- inhibition at 1 µM [22]: 5%
- inhibition at 1 µM [23]: 0%
- inhibition at 1 µM [24]: 23%
